The values below come from ChEMBL document CHEMBL1201862, “PubChem BioAssay data set” (2004).

Experiment in all cases: NCI tumour cell line growth inhibition, 48 h
The subject of test [1] is OVCAR-4.
Test [2] concerns SR.
The test system of test [3] is TK-10.
Test [4] concerns HL-60.
Test [5] relates to HCT-15.
Test [6] deals with LOX IMVI.
The test system of test [7] is U-251.
In test [8] the test system is UACC-257.
Test [9] has as its system SNB-19.
For test [10], the system named is CAKI-1.
Test [11] has as its system A498.
The test system of test [12] is MDA-N.
Test [13] relates to RPMI-8226.
Test [14] deals with UO-31.
Test [15] relates to MCF7.
Test [16] deals with COLO 205.
The subject of test [17] is NCI-H522.
Test [18] deals with KM12.
For test [19], the system named is MOLT-4.
In test [20] the test system is K562.

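These data come from cells grown in 96-well plates and exposed to compound for 48 hours at five concentrations. GI50: concentration for 50% inhibition of growth.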 Calls of active or inactive are those of the source. Cut-off read from the data, not from the text of the source: active = GI50 up to about 1.1 µM and inactive = higher.

Turning to `Cc1occc1C(=S)Nc1ccc(Cl)c(C(=O)OC(C(C)C)C(C)C)c1`, the GI50 is 14.7 µM (inactive) in [1]; 7 µM (inactive) in test [2]; 15.3 µM (inactive) in [3]; 10.8 µM (inactive) in test [4]; 13.1 µM in test [5]; 13 µM (inactive) in [6]. Further, the GI50 is 10.8 µM (inactive) in test [7]; 4.85 µM (inactive) in test [8]; 21.3 µM (inactive) in test [9]; 17.1 µM (inactive) in test [10]; 13.6 µM (inactive) in test [11]; 12.1 µM (inactive) in [12]. Further, the GI50 is 6.11 µM (inactive) in [13]; 5 µM (inactive) in [14]; 13.1 µM (inactive) in test [15]; 9.59 µM (inactive) in [16]; 11.8 µM (inactive) in test [17]; 12.5 µM (inactive) in test [18]. Also, the GI50 in [19] was 5.32 µM (inactive).

On to `C(CCc1nnc2c(n1)CCCC2)Cc1nnc2c(n1)CCCC2`, for which the GI50 in test [1] is > 100 µM (inactive); in test [2], 88.7 µM (inactive); in test [3], > 100 µM (inactive); in test [4] it was > 100 µM (inactive); in test [20] it was > 100 µM (inactive); in test [5] it was greater than 100 µM. Also, the GI50 in test [6] was > 100 µM (inactive); in [7] it was > 100 µM (inactive); in test [9], > 100 µM (inactive); in [10], > 100 µM (inactive); in [11], > 100 µM (inactive); in test [12], 88.3 µM (inactive). Also, the GI50 in test [13], in test [14], in test [15], in [16], in test [17] and in test [18] was > 100 µM (inactive) in each case. Moreover, the GI50 in test [19] is > 100 µM (inactive).

For the compound `COC(=O)c1ccc(C)cc1C1CN=NC12Cc1cc(C)c(C)cc1C2=O` (configuration not stated), the GI50 in test [1] is > 100 µM (inactive); in [2], 48.5 µM (inactive); in [3], > 100 µM (inactive); in test [4], 19.7 µM (inactive); in test [20], 27.4 µM (inactive); in [5], 48.1 µM. For the same compound, the GI50 is 25.9 µM (inactive) in test [6]; 46.7 µM (inactive) in [7]; 53.2 µM (inactive) in test [8]; 42.4 µM (inactive) in [9]; 79.8 µM (inactive) in test [10]; 57.4 µM (inactive) in [11]. Also, the GI50 in test [12] is 27.9 µM (inactive); in test [13], 27.9 µM (inactive); in test [14], 46.1 µM (inactive); in test [15], 38.7 µM (inactive); in test [17], 27.7 µM (inactive); in test [18], 30.2 µM (inactive). In test [19], the GI50 is 26.7 µM (inactive).

For `CC12CCC(C(=O)OC1=O)C2(C)C` (configuration not stated), the GI50 in test [1] is > 100 µM (inactive); in test [2] it was 0.628 µM (active); in test [3], > 100 µM (inactive); in [4], 32.1 µM (inactive); in [20], > 100 µM (inactive); in [5], greater than 100 µM. In addition, the GI50 in [6] is > 100 µM (inactive); in test [7], > 100 µM (inactive); in test [8], 8.81 µM (inactive); in [9], > 100 µM (inactive); in test [11], > 100 µM (inactive); in test [12], > 100 µM (inactive). In addition, the GI50 in test [13], in test [14], in [15], in test [16], in test [17] and in [18] was > 100 µM (inactive) throughout. The GI50 in test [19] is > 100 µM (inactive).

Regarding `O=C1CCc2cc3c(cc21)CC1(Cc2cc4c(cc2C1)CCCC4)C3`, the GI50 in test [1] is 29 µM (inactive); in test [2], 5.52 µM (inactive); in [3], > 100 µM (inactive); in [4], 27.9 µM (inactive); in [20], 23.6 µM (inactive); in test [5] it was 69 µM. Besides, the GI50 in test [6] is 58.5 µM (inactive); in test [7], 45.9 µM (inactive); in test [8], 35.6 µM (inactive); in test [9], 45.1 µM (inactive); in test [11] it was 61.5 µM (inactive); in test [12] it was 4.82 µM (inactive). Moreover, the GI50 was > 100 µM (inactive) in [13]; > 100 µM (inactive) in [14]; 44.5 µM (inactive) in test [15]; 33 µM (inactive) in test [16]; 26 µM (inactive) in test [17]; 51.2 µM (inactive) in test [18]. Besides, the GI50 in test [19] is > 100 µM (inactive).

For `O=C(C=P(c1ccccc1)(c1ccccc1)c1ccccc1)c1cccc(-c2cccc([N+](=O)[O-])c2)c1`, the GI50 in [1] is 2.45 µM (inactive); in test [2], 2.58 µM (inactive); in test [3], 3.18 µM (inactive); in test [4], 1.76 µM (inactive); in test [20], 2.99 µM (inactive); in [5], 3.16 µM. Moreover, the GI50 in test [6] was 2.56 µM (inactive); in [7] it was 3.89 µM (inactive); in test [9], 4.21 µM (inactive); in [10] it was 1.86 µM (inactive); in test [11], 1.83 µM (inactive); in test [12] it was 2.49 µM (inactive). Also, the GI50 in test [13] is 1.98 µM (inactive); in test [14] it was 3.11 µM (inactive); in test [15] it was 3.47 µM (inactive); in test [16], 1.53 µM (inactive); in [17], 1.86 µM (inactive); in test [18] it was 3.67 µM (inactive). In addition, in test [19], the GI50 is 1.68 µM (inactive).

On to `COC(=O)c1cc2c(c(C(=O)OC)c1)CCC2`, for which the GI50 is > 100 µM (inactive) in [1]; 30.3 µM (inactive) in test [2]; > 100 µM (inactive) in [3]; 70.6 µM (inactive) in test [4]; 59 µM (inactive) in test [20]; 63.1 µM in test [5]. Besides, the GI50 in test [6] was 82.4 µM (inactive); in test [7] it was > 100 µM (inactive); in [8], > 100 µM (inactive); in test [9] it was > 100 µM (inactive); in test [10] it was 20.7 µM (inactive); in test [11], 63.7 µM (inactive). Further, the GI50 in [12] was > 100 µM (inactive); in test [13], > 100 µM (inactive); in test [14], 85.7 µM (inactive); in [15] it was > 100 µM (inactive); in [17], 58.2 µM (inactive); in [19], 37.2 µM (inactive).

As for `CCOC(=O)c1cc(Sc2ccc(N)c(C(=O)OCC)c2)ccc1N`, the GI50 in test [1] was 17.8 µM (inactive); in test [2], 6.95 µM (inactive); in test [4], 16.7 µM (inactive); in test [20] it was 7.98 µM (inactive); in [5], greater than 100 µM; in [7], 27.9 µM (inactive). Besides, the GI50 in [8] was > 100 µM (inactive); in [9], > 100 µM (inactive); in test [10], 7.69 µM (inactive); in [11], 21.6 µM (inactive); in test [12], 5.43 µM (inactive); in test [13], 24 µM (inactive). For the same compound, the GI50 in [15] is 13.2 µM (inactive); in test [16] it was 60.8 µM (inactive); in [17], 4.38 µM (inactive); in [18], 5.62 µM (inactive); in test [19] it was 8.24 µM (inactive).

For the compound `C=CCn1c(-c2ccc([N+](=O)[O-])cc2)cs/c1=N\C(P(=O)(O)O)P(=O)(O)O`, the GI50 in test [2] was > 100 µM (inactive); in [3], > 100 µM (inactive); in test [4], 0.0383 µM (active); in [20], > 100 µM (inactive); in [5], greater than 100 µM; in [6] it was > 100 µM (inactive). For the same compound, the GI50 in test [7], in test [8], in test [9], in test [10], in test [11] and in [12] was > 100 µM (inactive) throughout. In addition, the GI50 in test [13], in [14], in test [15], in [16], in [17] and in test [18] was > 100 µM (inactive) throughout. The GI50 in test [19] is > 100 µM (inactive).

As for `Nc1c(C(=O)c2ccccc2)[nH]c(NCc2ccccc2)c1C(=S)Nc1ccccc1`, the GI50 was > 100 µM (inactive) in [1]; > 100 µM (inactive) in test [2]; > 100 µM (inactive) in test [3]; > 100 µM (inactive) in [4]; > 100 µM (inactive) in test [20]; greater than 100 µM in test [5]. Moreover, the GI50 in test [6], in test [7], in test [8], in test [9], in [10] and in test [11] was > 100 µM (inactive) in each case. In addition, the GI50 in test [12], in test [14], in test [15], in [16], in [17] and in test [18] was > 100 µM (inactive) in each case. Besides, the GI50 in [19] was > 100 µM (inactive).

`CC(=O)NNC(=S)N/C=C1/C(=O)Oc2ccccc2C1=O`: the GI50 in test [1] was > 100 µM (inactive); in test [2], > 100 µM (inactive); in test [3] it was > 100 µM (inactive); in [4], > 100 µM (inactive); in test [20], > 100 µM (inactive); in test [5], greater than 100 µM. The GI50 in test [6], in [7], in test [8], in test [9], in [10] and in test [11] was > 100 µM (inactive) each time. Also, the GI50 in test [12], in [13], in [14], in [15], in test [16] and in test [17] was > 100 µM (inactive) throughout. The GI50 in [18] and in test [19] was > 100 µM (inactive) throughout.
